This is an account of results in ChEMBL document CHEMBL3632588 (Medchemcomm, 2015).

A short description of series [1]: Ratio of IC50 for mouse NMuMG cells to IC50 for mouse B16F0 cells.
Series [2] can be described thus: Cytotoxicity in mouse NMuMG cells assessed as cell growth at 20 uM after 72 hrs by colorimetry. Format: cell-based. The note with it: read-out: Activity.
Series [3] deals with HeLa. Briefly: Ratio of IC50 for mouse NMuMG cells to IC50 for human HeLa cells.
In series [4] the test system is HeLa. The series is described as follows: Antiproliferative activity against human HeLa cells assessed as cell growth at 20 uM after 72 hrs by colorimetry. The note with it: read-out: Activity. Format: functional.
The nature of series [5]: Ratio of IC50 for mouse NMuMG cells to IC50 for mouse […] cells.
For series [6], the system named is MCF7. Briefly: Antiproliferative activity against human MCF7 cells assessed as cell growth at 20 uM after 72 hrs by colorimetry. Format: functional. The note with it: MCF7, 72 h, read-out: Activity.
The nature of series [7]: Antiproliferative activity against mouse LM3 cells assessed as cell growth at 20 uM after 72 hrs by colorimetry. Format: functional. The note with it: LM3, 72 h, read-out: Activity.
Series [8] is described as follows: Antiproliferative activity against mouse LM3 cells after 72 hrs by colorimetry. Format: functional, cell-based. The note with it: LM3, 72 h.
Series [9] concerns HeLa. The series is described as follows: Antiproliferative activity against human HeLa cells after 72 hrs by colorimetry. Format: functional, cell-based.
A short description of series [10]: Cytotoxicity in mouse NMuMG cells after 72 hrs by colorimetry. Format: cell-based.
Series [11] in a line: Antiproliferative activity against mouse B16F0 cells assessed as cell growth at 20 uM after 72 hrs by colorimetry. Format: functional. The conditions noted are these: B16F0, 72 h, read-out: Activity.
The nature of series [12]: Antiproliferative activity against mouse B16F0 cells after 72 hrs by colorimetry. Format: functional, cell-based. The conditions noted are these: B16F0, 72 h.
Series [13] deals with MCF7. The series is described as follows: Antiproliferative activity against human MCF7 cells after 72 hrs by colorimetry. Format: functional, cell-based. The conditions noted are these: MCF7, 72 h.
The test system of series [14] is MCF7. Briefly: Ratio of IC50 for mouse NMuMG cells to IC50 for human MCF7 cells.

The term IC50 denotes the concentration that gives 50% inhibition. A lower IC50 goes with greater potency. With `CCOc1ccc2nc(SC[C@]3(C)S[C@@H]4[C@@H](Cl)C(=O)N4[C@H]3C(=O)OC)sc2c1`, the “Ratio IC50” value in series [1] was determined as 1.6; in the series with HeLa [3], 1.8; in series [5], 1.8. The viability at 72 h, 20 µM in series [2] turned out to be 64%. Further, the growth at 20 µM in the series on HeLa [4] came out at 56%; in the series on MCF7 [6] it was 65%; in [7], 49%; in series [11], 52%. For the same molecule, the IC50 in series [8] turned out to be 24 µM; in the series on HeLa [9] it was 24 µM; in series [10] it was 43 µM; in series [12] it was 27 µM.
Take `CCOc1ccc2nc(SC[C@@]3(C)[C@H](C(=O)OC)N4C(=O)[C@H](Cl)[C@H]4S3(=O)=O)sc2c1`: the viability at 72 h, 20 µM in series [2] turned out to be 8%.
For the molecule `COC(=O)[C@@H]1N2C(=O)C(Br)(Br)[C@H]2S(=O)(=O)[C@@]1(C)CCl`, the viability at 72 h, 20 µM in [2] was determined as 35%.
As to `COC(=O)[C@@H]1N2C(=O)[C@H](Cl)[C@H]2S[C@@]1(C)CSc1nc2ccccc2o1`, the viability at 72 h, 20 µM in series [2] was found to be 65%. Further, the growth at 20 µM in the series on HeLa [4] stood at 68%; in the series on MCF7 [6], 84%; in series [7] it was 87%; in [11] it was 68%.
`COC(=O)[C@@H]1N2C(=O)[C@H](Cl)[C@H]2S[C@@]1(C)CSC1=NCCS1`: the viability at 72 h, 20 µM in [2] turned out to be 65%. Moreover, the entries for the “Ratio IC50” value (in the series with HeLa [3]; in series [5]) were 2.2 and 2, respectively. Besides, the growth at 20 µM in the series with HeLa [4] is 48%; with MCF7 [6], 87%; in series [7] it was 54%; in [11], 71%. The IC50 in series [8] was 20 µM; with HeLa [9] it was 19 µM; in series [10], 41 µM.
For the molecule `COC(=O)[C@@H]1N2C(=O)C(Br)(Br)[C@H]2S[C@@]1(C)CSc1nc(-c2ccccc2)c(-c2ccccc2)o1`, the “Ratio IC50” value in [1] was 2.8; with HeLa [3], 4.4; in series [5], 2.2; in the series on MCF7 [14], 1.7. Besides, the viability at 72 h, 20 µM in [2] was determined as 55%. The growth at 20 µM is 7% with HeLa [4], 27% in the series on MCF7 [6], 35% in series [7] and 38% in series [11]. In addition, the IC50 in the series with MCF7 [13] amounted to 18 µM; in series [8], 14 µM; in the series on HeLa [9] it was 7 µM; in [10] it was 31 µM; in [12], 11 µM.
`COC(=O)[C@@H]1N2C(=O)[C@H](Cl)[C@H]2S[C@@]1(C)CSc1nc(-c2ccccc2)c(-c2ccccc2)o1`: the viability at 72 h, 20 µM in series [2] stood at 55%. For the same molecule, in the series on HeLa [3], the “Ratio IC50” value is given as 2.5. The growth at 20 µM came out at 27% in the series with HeLa [4], 87% in the series with MCF7 [6], 65% in series [7] and 65% in [11]. The results for the IC50 (in the series with HeLa [9]; in series [10]) were 13 µM and 32 µM, respectively.
Regarding `COC(=O)[C@@H]1N2C(=O)[C@H](Cl)[C@H]2S[C@@]1(C)CSc1nc2ccccc2s1`, the “Ratio IC50” value in [1] stood at 2; in the series with HeLa [3] it was 2; in [5], 1.8. The viability at 72 h, 20 µM in series [2] amounted to 55%. The growth at 20 µM in the series on HeLa [4] was 44%; in the series on MCF7 [6], 66%; in [7] it was 55%; in series [11], 48%. For the same molecule, the IC50 in [8] came out at 20 µM; in the series with HeLa [9], 18 µM; in [10], 36 µM; in series [12] it was 18 µM.
